In general, IC50 refers to the concentration that inhibits the measured activity by half. The low end stands for greater potency in that assay, the high end for weaker potency in that assay.

Each structure is given as a SMILES string.

The test addresses T1, Human steroid 5α-reductase (Homo sapiens, UniProt P31213).
T1 construct: The suspension was used as the source of 5α-reductase; from tissue; host or cells: frozen human prostate, whole homogenate in 0.1 M phosphate buffer pH 5.5
T1 sequence (P31213 1-254): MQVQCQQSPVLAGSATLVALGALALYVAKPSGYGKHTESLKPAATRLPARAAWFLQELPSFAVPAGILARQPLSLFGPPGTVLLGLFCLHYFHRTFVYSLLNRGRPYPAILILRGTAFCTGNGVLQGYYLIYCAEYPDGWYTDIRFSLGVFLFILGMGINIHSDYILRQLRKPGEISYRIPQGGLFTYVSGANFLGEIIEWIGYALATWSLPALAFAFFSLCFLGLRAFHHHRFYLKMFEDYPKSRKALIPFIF
The test is described as follows: Human steroid 5α-reductase inhibiting effect using human prostatic tissue. The format is biochemical. Particulars: human prostate homogenate, pH 5.5, 50 nM [3H]testosterone, NADPH, 37° C., 10 min; Table 5. The text has this:
Human steroid 5α-reductase inhibiting effect was examined on the compounds of the present invention using human prostatic tissue.
Frozen human prostate was thawed on ice and minced into small pieces (~5mm^3). The minced tissue was homogenized with a Polytron homogenizer (Kinematica, Switzerland) in 40 vol. of 0.1M phosphate buffer at pH 5.5. The suspension was used as the source of 5α-reductase.
For this test, DMSO solutions containing various amount of the inhibitor were employed.
Each reaction solution was incubated at 37° C. for 10 minutes and ethyl acetate (2 ml) chilled with ice was added for stopping the reaction. The organic layer was transferred to another test tube and evaporated to dryness under nitrogen. Each 50 μg of non radioactive testosterone, DHT, estradiol, androstenedione and androstandiol was added to the residue, and the wall of each test tube was washed with ethyl acetate (0.1 ml). The content of the tube was evaporated again and the residue was dissolved in chloroform (50 μl) and then applied to Whatman LK60DF silica plates (Whatman, N.J.), developing in chloroform:methanol (50:1). The bands of the substrates and products were identified by fluorescence (254 nm) and iodine, and the relevant silica gel was collected by scraping, mixed with toluene based liquid sincilator, and the radioactivity was counted. The radioactivities of DHT and androstandiol were combined for the calculation of 5α-reductase activity. […] The radioactivity for the control group was postulated as 100%.
IC50 were calculated from the data obtained from the above experiments.
The molecule `COc1ccc(C(=O)NC2CCC=C3C=C(C(=O)O)CCC32C)cc1OC1CCCCCC1` (centres unmarked) [Example 39, 5-(3'-cycloheptyloxy-4'-methoxybenzoylamino)-10-methyl-Δ^1(2),8(9) -octalin-2-carboxylic acid] had a half-inhibitory concentration (IC50) of 390 nM. The value for `C[C@@]12CCC(C(=O)O)=CC1=CCC[C@H]2NC(=O)c1cccc(OC2CCCCCC2)c1` [Example 45, (5R,10R)-5-(3'-cycloheptyloxybenzoylamino)-10-methyl-Δ^1(2),8(9)-octalin-2-carboxylic acid] was 610 nM. The molecule `CC(C)c1ccc(Oc2cccc(C(=O)NC3CCC=C4C=C(C(=O)O)CCC43C)c2)cc1` (centres unmarked) [Example 4, 5-[3'-(p-isopropylphenoxy)benzoylamino]-10-methyl-Δ^1(2),8(9) -octalin-2-carboxylic acid] displayed an IC50 of 810 nM. The molecule `CC(C)C1CCC(Oc2cccc(C(=O)NC3CCC=C4C=C(C(=O)O)CCC43C)c2)CC1` (centres unmarked) [Example 22, 5-[3-(4-isopropylcyclohexyloxy)benzoylamino]-10-methyl-Δ^1(2),8(9) -octalin-2-carboxylic acid] displayed a half-maximal inhibitory concentration (IC50) of 520 nM.

`CC(C)Cc1ccc(Oc2cccc(C(=O)NC3CCC=C4C=C(C(=O)O)CCC43C)c2)cc1` (centres unmarked) [Example 9, 5-{3"-[p-(2'-methylpropyl]phenoxy)benzoylamino}-10-methyl-Δ^1(2),8(9) -octalin-2-carboxylic acid] gave an IC50 of 520 nM.

Turning to `CC12CCC(C(=O)O)=CC1=CCCC2NC(=O)c1cccc(Oc2ccc3c(c2)CCCC3)c1` (centres unmarked) [Example 14, 5-[3'-(5",6",7",8"-tetrahydro-2"-naphtoxy)benzoylamino]-10-methyl-Δ^1(2),8(9) -octalin-2-carboxylic acid], the IC50 is 440 nM. Then `CC(C)(C)c1cc(C(=O)NC2CCC=C3C=C(C(=O)O)CCC32C)cc(C(C)(C)C)c1` (centres unmarked) [Example 43, 5-(3',5'-di-t-butylbenzoylamino)-10-methyl-Δ^1(2),8(9) -octalin-2-carboxylic acid], with 230 nM; and `C[C@]12CCC(C(=O)O)=CC1=CC[C@@H]2NC(=O)c1cccc(OC(C2CC2)C2CC2)c1` [Example 54, (1S,8S)-1-[3'-(dicyclopropylmethyloxy)benzoylamino]-8a-methyl-1,2,6,7-tetrahydroindene-5-carboxylic acid], with 160 nM; and `C[C@]12CCC(C(=O)O)=CC1=CCC[C@@H]2NC(=O)c1cccc(OC2CCCCCC2)c1` [Example 46, (5S,10S)-5-(3'-cycloheptyloxybenzoylamino)-10-methyl-Δ^1(2),8(9)-octalin-2-carboxylic acid], with 300 nM. Turning to `CC12CCC(C(=O)O)=CC1=CCCC2NC(=O)c1cccc(CC2CCCCC2)c1` (centres unmarked) [Example 35, 5-(3'-cyclohexylmethylbenzoylamino)-10-methyl-Δ^1(2),8(9) -octalin-2-carboxylic acid], the IC50 is 160 nM.

The molecule `CC12CCC(C(=O)O)=CC1=CCCC2NC(=O)c1cccc(O[C@H]2CC[C@H](C(C)(C)C)CC2)c1` (stereo partly drawn) [Example 23, 5-[3-(4-trans-t-butylcyclohexyloxy)benzoylamino]-10-methyl-Δ^1(2),8(9) -octalin-2-carboxylic acid] returned a half-maximal inhibitory concentration (IC50) of 300 nM. The value for `C[C@]12CCC(C(=O)O)=CC1=CCC[C@@H]2NC(=O)c1cccc(OC(C2CC2)C2CC2)c1` [Example 47, (5S,10S)-5-(3'-dicyclopropylmethoxybenzoylamino)-10-methyl-Δ^1(2),8(9) -octalin-2-carboxylic acid] was 160 nM; that for `CC12CCC(C(=O)O)=CC1=CCCC2NC(=O)c1cccc(OCc2ccccc2)c1` (centres unmarked) [Example 15, 5-(3'-benzyloxy-benzoylamino)-10-methyl-Δ^1(2),8(9) -octalin-2-carboxylic acid] was 4210 nM. Then `CC12CCC(C(=O)O)=CC1=CCCC2NC(=O)c1cccc(OC2CCCCCCC2)c1` (centres unmarked) [Example 20, 5-(3'-cyclooctyloxybenzoylamino)-10-methyl-Δ^1(2),8(9) -octalin-2-carboxylic acid], with 270 nM.

Molecule `CC12CCC(C(=O)O)=CC1=CCCC2NC(=O)c1ccc(Oc2ccccc2)cc1` (centres unmarked) [Example 1] gave an IC50 of 3300 nM. The value for `Cc1ccc(Oc2cccc(C(=O)NC3CCC=C4C=C(C(=O)O)CCC43C)c2)cc1` (centres unmarked) [Example 7, 5-[3'-(p-tolyloxy)benzoylamino]-10-methyl-Δ^1(2),8(9) -octalin-2-carboxylic acid] was 210 nM. Molecule `Cc1c(OC2CCCCCC2)cccc1C(=O)NC1CCC=C2C=C(C(=O)O)CCC21C` (centres unmarked) [Example 51, 5-(3'-cycloheptyloxy-2-methylbenzoylamino)-10-methyl -Δ^1(2),8(9) -octalin-2-carboxylic acid] displayed an IC50 of 910 nM. Turning to `CC12CCC(C(=O)O)=CC1=CCCC2NC(=O)c1cccc(Oc2ccc(C3CCCCC3)cc2)c1` (centres unmarked) [Example 11, 5-[3'-(p-cyclohexylphenoxy)benzoylamino]-10-methyl-Δ^1(2),8(9) -octalin-2-carboxylic acid], the midpoint of inhibition, the IC50, lay at 250 nM. On to `CC(C)C(Oc1cccc(C(=O)N[C@H]2CCC=C3C=C(C(=O)O)CC[C@@]32C)c1)C(C)C` [Example 48, (5S,10S)-5-[3'-(2",4"-dimethyl-3"-pentyloxy)benzoylamino]-10-methyl-Δ^1(2),8(9) -octalin-2-carboxylic acid], for which half-maximal inhibition (IC50) required 65 nM. Then `CC12CCC(C(=O)O)=CC1=CCCC2NC(=O)c1cccc(OC2CCCC2)c1` (centres unmarked) [Example 17, 5-(3'-cyclopentyloxybenzoylamino)-10-methyl-Δ^1(2),8(9) -octalin-2-carboxylic acid], with 180 nM.

The molecule `CC12CCC(C(=O)O)=CC1=CCCC2NC(=O)c1ccc2c(c1)OC1(CCCCC1)O2` (centres unmarked) [Example 42, 5-(3',4'-cyclohexylidenedioxybenzoylamino)-10-methyl-Δ^1(2),8(9)-octalin-2-carboxylic acid] had a 50% inhibitory concentration (IC50) of 770 nM.

As for `CC12CCC(C(=O)O)=CC1=CCCC2NC(=O)c1cccc(OCC2CCCCC2)c1` (centres unmarked) [Example 31, 5-(3'-cyclohexylmethoxybenzoylamino)-10-methyl-Δ^1(2),8(9) -octalin-2-carboxylic acid], the half-inhibitory concentration (IC50) was 410 nM. On to `CC(C)c1ccc(Oc2cc(Br)cc(C(=O)NC3CCC=C4C=C(C(=O)O)CCC43C)c2)cc1` (centres unmarked) [Example 37, 5-[3-bromo-5-(p-isopropylphenoxy)benzoylamino]-10-methyl-Δ^1(2),8(9) -octalin-2-carboxylic acid], for which the IC50 was found to be 300 nM. Then `CC12CCC(C(=O)O)=CC1=CCCC2NC(=O)c1cccc(Oc2ccccc2)c1` (centres unmarked) [Example 2, 5-(3'-phenoxybenzoylamino)-10-methyl-Δ^1(2),8(9) -octalin-2-carboxylic acid], with 830 nM.

The molecule `CC(C)c1cccc(Oc2cccc(C(=O)NC3CCC=C4C=C(C(=O)O)CCC43C)c2)c1` (centres unmarked) [Example 5, 5-[3'-(m-isopropylphenoxy)benzoylamino]-10-methyl-Δ^1(2),8(9) -octalin-2-carboxylic acid] came in with an IC50 of 460 nM.

The molecule `Cc1cc(C)cc(Oc2cccc(C(=O)NC3CCC=C4C=C(C(=O)O)CCC43C)c2)c1` (centres unmarked) [Example 13, 5-[3'-(3,5-dimethylphenoxy)benzoylamino]-10-methyl-Δ^1(2),8(9) -octalin-2-carboxylic acid] yielded an IC50 of 660 nM.
